Test results from patent US20240270762A1, “PENICILLIN-BINDING PROTEIN INHIBITORS” (priority 2021, published 2024).
In brackets after ≈: the same amount, converted by molar mass.

Columns and labels:
[1] = molecular target: T1, PBP3 from Pseudomonas aeruginosa (PAO1) (Pseudomonas aeruginosa, UniProt G3XD46); test: Bocillin-FL fluorescence polarization competition binding, P. aeruginosa PBP3; details: Binding affinity to P. aeruginosa PBP3; fluorescence polarization competition binding assay using Bocillin-FL; read-out: P. aeruginosa PBP3 Potency
T1 construct: made in house
T1 sequence (G3XD46 whole entry): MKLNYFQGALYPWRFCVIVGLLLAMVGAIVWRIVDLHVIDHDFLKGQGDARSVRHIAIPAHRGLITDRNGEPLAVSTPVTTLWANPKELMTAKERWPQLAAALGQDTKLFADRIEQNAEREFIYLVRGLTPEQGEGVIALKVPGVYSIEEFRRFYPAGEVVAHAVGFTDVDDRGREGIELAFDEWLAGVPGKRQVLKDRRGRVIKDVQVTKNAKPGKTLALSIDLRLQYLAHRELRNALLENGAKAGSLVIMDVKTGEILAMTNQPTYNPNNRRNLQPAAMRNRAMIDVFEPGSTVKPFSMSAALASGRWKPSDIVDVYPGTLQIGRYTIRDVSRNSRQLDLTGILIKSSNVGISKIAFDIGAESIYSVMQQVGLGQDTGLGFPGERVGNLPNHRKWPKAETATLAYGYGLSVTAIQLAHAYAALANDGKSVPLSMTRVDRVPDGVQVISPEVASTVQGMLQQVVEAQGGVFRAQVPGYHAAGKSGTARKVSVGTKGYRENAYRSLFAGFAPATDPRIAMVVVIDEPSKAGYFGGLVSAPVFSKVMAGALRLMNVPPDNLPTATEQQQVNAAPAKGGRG
Summary of the method: (§1)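 Purified PBPs pre-incubated with inhibitor (E. coli PBP3 1.5 μM, 30 min; P. aeruginosa PBP3 0.75 μM, A. baumannii PBP1a 1 μM and PBP3 0.2 μM, 15 min), then Bocillin-FL 0.1 μM (0.05 μM for PBP1a) added; FP read up to 60 min. EC50 = concentration halving bound Bocillin-FL.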

[2] = molecular target: T2, PBP3 from Acinetobacter baumannii (ATCC 19606) (Acinetobacter baumannii, UniProt A0ABX6CK25); test: Bocillin-FL fluorescence polarization competition binding, A. baumannii PBP3; details: fluorescence polarization competition binding assay using Bocillin-FL; read-out: A. baumannii PBP3 Potency
T2 sequence (A0ABX6CK25 64-610): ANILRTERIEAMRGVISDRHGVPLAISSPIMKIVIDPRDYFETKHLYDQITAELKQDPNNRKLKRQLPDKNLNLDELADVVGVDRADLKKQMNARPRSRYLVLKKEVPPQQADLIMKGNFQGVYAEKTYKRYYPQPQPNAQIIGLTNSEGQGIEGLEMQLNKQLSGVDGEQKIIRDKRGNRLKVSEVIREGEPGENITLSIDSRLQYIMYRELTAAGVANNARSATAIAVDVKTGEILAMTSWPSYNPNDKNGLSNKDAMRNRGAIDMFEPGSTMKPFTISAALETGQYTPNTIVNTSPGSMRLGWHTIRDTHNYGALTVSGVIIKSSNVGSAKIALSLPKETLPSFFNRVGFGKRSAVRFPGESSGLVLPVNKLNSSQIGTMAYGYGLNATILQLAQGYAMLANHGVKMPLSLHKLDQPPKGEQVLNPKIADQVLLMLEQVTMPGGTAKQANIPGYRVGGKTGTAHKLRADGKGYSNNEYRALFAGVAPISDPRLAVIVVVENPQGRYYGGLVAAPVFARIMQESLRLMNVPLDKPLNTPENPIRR
Summary of the method: as §1

A. baumannii PBP2 = A. baumannii PBP2 (Acinetobacter baumannii, UniProt D0C8Z9); test: Bocillin-FL competition binding via gel filtration, A. baumannii PBP2
Sequence of A. baumannii PBP2 (D0C8Z9 whole entry): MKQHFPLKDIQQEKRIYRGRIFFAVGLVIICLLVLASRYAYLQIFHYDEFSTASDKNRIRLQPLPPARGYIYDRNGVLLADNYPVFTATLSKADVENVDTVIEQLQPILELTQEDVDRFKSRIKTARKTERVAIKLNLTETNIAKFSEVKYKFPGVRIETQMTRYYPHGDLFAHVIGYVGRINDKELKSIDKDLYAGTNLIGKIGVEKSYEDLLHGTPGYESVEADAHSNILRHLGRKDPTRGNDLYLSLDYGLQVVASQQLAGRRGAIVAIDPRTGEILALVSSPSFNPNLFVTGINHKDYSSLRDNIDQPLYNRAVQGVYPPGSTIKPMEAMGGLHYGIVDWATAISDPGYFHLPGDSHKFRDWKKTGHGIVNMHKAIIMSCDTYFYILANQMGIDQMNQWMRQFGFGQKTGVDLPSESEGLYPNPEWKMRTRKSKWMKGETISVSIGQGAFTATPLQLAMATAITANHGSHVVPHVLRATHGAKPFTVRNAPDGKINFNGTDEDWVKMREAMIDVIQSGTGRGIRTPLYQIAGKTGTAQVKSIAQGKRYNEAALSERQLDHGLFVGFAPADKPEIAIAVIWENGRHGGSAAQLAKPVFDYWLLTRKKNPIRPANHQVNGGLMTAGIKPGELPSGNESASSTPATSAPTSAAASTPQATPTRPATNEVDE
Summary of the method: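 Enzyme was pre-incubated with rising inhibitor concentrations, then Bocillin-FL was added and incubated 15 minutes more. Bound probe was separated by gel filtration and fluorescence read. EC50 came from fitting fraction of PBP labelled versus inhibitor concentration to a Hill equation with ymin, ymax and n.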

A. baumannii ATCC 17978 = test: microbe, parasite or virus in culture; format: cell-based; details: Acinetobacter baumannii, ATCC17978, read-out: MIC, A. baumannii ATCC 17978
[3] = system: P. aeruginosa (ΔmexAB-oprM); test: Broth microdilution MIC in iron-depleted CAMHB (IDM); format: cell-based; details: Pseudomonas aeruginosa; iron-depleted CAMHB (IDM); […]; read-out: Minimum inhibitory concentration, P. aeruginosa ΔmexAB-oprM
A. baumannii 1258916 = test: microbe, parasite or virus in culture; format: cell-based, Acinetobacter baumannii; details: Acinetobacter baumannii, 1258916, read-out: MIC, A. baumannii 1258916
A. baumannii CDC-0036 = test: microbe, parasite or virus in culture; format: cell-based; details: Acinetobacter baumannii, CDC0036, read-out: MIC, A. baumannii CDC-0036
P. aeruginosa CDC-0110 = test: microbe, parasite or virus in culture; format: cell-based; details: Pseudomonas aeruginosa, CDC0110, read-out: Minimum inhibitory concentration, P. aeruginosa CDC-0110

O=C(O)c1c(F)ccc2c1OB(O)[C@@H](NC(=O)C(NC(=O)N1CCN(C3CCN(S(=O)(=O)c4cccc(O)c4)CC3)C(=O)C1=O)c1cc(F)c(O)c(O)c1Cl)C2 (stereo partly drawn) [Example 428, (3R)-3-(2-(2-chloro-5-fluoro-3,4-dihydroxyphenyl)-2-(4-(1-((3-hydroxyphenyl)sulfonyl)piperidin-4-yl)-2,3-dioxopiperazine-1-carboxamido)acetamido)-7-fluoro-2-hydroxy-3,4-dihydro-2H-benzo[e][1,2]oxaborinine-8-carboxylic acid]
IC50 [1]: < 10 µM | IC50 [2]: < 10 µM | EC50 (A. baumannii PBP2): < 10 µM | MIC (A. baumannii ATCC 17978): < 1 µg/mL | MIC [3]: < 1 µg/mL | MIC (A. baumannii 1258916): < 1 µg/mL | MIC (A. baumannii CDC-0036): 2 to 4 µg/mL (≈ 2.43 to 4.87 µM) | MIC (P. aeruginosa CDC-0110): < 1 µg/mL

O=C(O)c1c(F)ccc2c1OB(O)[C@@H](NC(=O)C(NC(=O)N1CCN(C3CCN(S(=O)(=O)c4ccc(O)cc4)CC3)C(=O)C1=O)c1cc(F)c(O)c(O)c1Cl)C2 (stereo partly drawn) [Example 429, (3R)-3-(2-(2-chloro-5-fluoro-3,4-dihydroxyphenyl)-2-(4-(1-((4-hydroxyphenyl)sulfonyl)piperidin-4-yl)-2,3-dioxopiperazine-1-carboxamido)acetamido)-7-fluoro-2-hydroxy-3,4-dihydro-2H-benzo[e][1,2]oxaborinine-8-carboxylic acid]
IC50 [1]: < 10 µM | IC50 [2]: < 10 µM | EC50 (A. baumannii PBP2): < 10 µM | MIC (A. baumannii ATCC 17978): < 1 µg/mL | MIC [3]: < 1 µg/mL | MIC (A. baumannii 1258916): < 1 µg/mL | MIC (A. baumannii CDC-0036): 2 to 4 µg/mL (≈ 2.43 to 4.87 µM) | MIC (P. aeruginosa CDC-0110): < 1 µg/mL

O=C(NCCCN1CCN(C(=O)NC(C(=O)N[C@H]2Cc3ccc(F)c(C(=O)O)c3OB2O)c2cc(F)c(O)c(O)c2Cl)C(=O)C1=O)c1ccnc(F)c1 (stereo partly drawn) [Example 466, (3R)-3-(2-(2-chloro-5-fluoro-3,4-dihydroxyphenyl)-2-(4-(3-(2-fluoroisonicotinamido)propyl)-2,3-dioxopiperazine-1-carboxamido)acetamido)-7-fluoro-2-hydroxy-3,4-dihydro-2H-benzo[e][1,2]oxaborinine-8-carboxylic acid]
IC50 [1]: < 10 µM | IC50 [2]: < 10 µM | EC50 (A. baumannii PBP2): 10 to 50 µM | MIC (A. baumannii ATCC 17978): < 1 µg/mL | MIC [3]: < 1 µg/mL | MIC (A. baumannii 1258916): 2 to 4 µg/mL (≈ 2.62 to 5.24 µM) | MIC (A. baumannii CDC-0036): 2 to 4 µg/mL (≈ 2.62 to 5.24 µM) | MIC (P. aeruginosa CDC-0110): < 1 µg/mL

O=C(O)c1c(F)ccc2c1OB(O)[C@@H](NC(=O)C(NC(=O)N1CCN(C3CCN(C(=O)Cc4cccc(O)c4)CC3)C(=O)C1=O)c1cc(F)c(O)c(O)c1Cl)C2 (stereo partly drawn) [Example 474, (3R)-3-(2-(2-chloro-5-fluoro-3,4-dihydroxyphenyl)-2-(4-(1-(2-(3-hydroxyphenyl)acetyl)piperidin-4-yl)-2,3-dioxopiperazine-1-carboxamido)acetamido)-7-fluoro-2-hydroxy-3,4-dihydro-2H-benzo[e][1,2]oxaborinine-8-carboxylic acid]
IC50 [1]: < 10 µM | IC50 [2]: < 10 µM | EC50 (A. baumannii PBP2): < 10 µM | MIC (A. baumannii ATCC 17978): < 1 µg/mL | MIC [3]: < 1 µg/mL | MIC (A. baumannii 1258916): < 1 µg/mL | MIC (A. baumannii CDC-0036): < 1 µg/mL | MIC (P. aeruginosa CDC-0110): < 1 µg/mL

O=C(O)c1c(F)ccc2c1OB(O)[C@@H](NC(=O)C(NC(=O)N1CCN(CC3CCN(C(=O)c4cccc(O)c4)CC3)C(=O)C1=O)c1cc(F)c(O)c(O)c1Cl)C2 (stereo partly drawn) [Example 475, (3R)-3-(2-(2-chloro-5-fluoro-3,4-dihydroxyphenyl)-2-(4-((1-(3-hydroxybenzoyl)piperidin-4-yl)methyl)-2,3-dioxopiperazine-1-carboxamido)acetamido)-7-fluoro-2-hydroxy-3,4-dihydro-2H-benzo[e][1,2]oxaborinine-8-carboxylic acid]
IC50 [1]: < 10 µM | IC50 [2]: < 10 µM | EC50 (A. baumannii PBP2): < 10 µM | MIC (A. baumannii ATCC 17978): < 1 µg/mL | MIC [3]: < 1 µg/mL | MIC (A. baumannii 1258916): < 1 µg/mL | MIC (A. baumannii CDC-0036): 2 to 4 µg/mL (≈ 2.5 to 5 µM) | MIC (P. aeruginosa CDC-0110): < 1 µg/mL

O=C(O)c1c(F)ccc2c1OB(O)[C@@H](NC(=O)C(NC(=O)N1CCN(C3CCN(C(=O)c4ccc(O)cc4O)CC3)C(=O)C1=O)c1cc(F)c(O)c(O)c1Cl)C2 (stereo partly drawn) [Example 476, (3R)-3-(2-(2-chloro-5-fluoro-3,4-dihydroxyphenyl)-2-(4-(1-(2,4-dihydroxybenzoyl)piperidin-4-yl)-2,3-dioxopiperazine-1-carboxamido)acetamido)-7-fluoro-2-hydroxy-3,4-dihydro-2H-benzo[e][1,2]oxaborinine-8-carboxylic acid]
IC50 [1]: < 10 µM | IC50 [2]: < 10 µM | EC50 (A. baumannii PBP2): < 10 µM | MIC (A. baumannii ATCC 17978): < 1 µg/mL | MIC [3]: < 1 µg/mL | MIC (A. baumannii 1258916): < 1 µg/mL | MIC (A. baumannii CDC-0036): < 1 µg/mL | MIC (P. aeruginosa CDC-0110): < 1 µg/mL

O=C(O)c1c(F)ccc2c1OB(O)[C@@H](NC(=O)C(NC(=O)N1CCN(CC3CCN(C(=O)Nc4cccc(O)c4)CC3)C(=O)C1=O)c1cc(F)c(O)c(O)c1Cl)C2 (stereo partly drawn) [Example 477, (3R)-3-(2-(2-chloro-5-fluoro-3,4-dihydroxyphenyl)-2-(4-((1-((3-hydroxyphenyl)carbamoyl)piperidin-4-yl)methyl)-2,3-dioxopiperazine-1-carboxamido)acetamido)-7-fluoro-2-hydroxy-3,4-dihydro-2H-benzo[e][1,2]oxaborinine-8-carboxylic acid]
IC50 [1]: < 10 µM | IC50 [2]: < 10 µM | EC50 (A. baumannii PBP2): < 10 µM | MIC (A. baumannii ATCC 17978): < 1 µg/mL | MIC [3]: < 1 µg/mL | MIC (A. baumannii 1258916): < 1 µg/mL | MIC (A. baumannii CDC-0036): 2 to 4 µg/mL (≈ 2.45 to 4.91 µM) | MIC (P. aeruginosa CDC-0110): < 1 µg/mL

O=C(O)c1c(F)ccc2c1OB(O)[C@@H](NC(=O)C(NC(=O)N1CCN(C3CCN(C(=O)Nc4cccc(O)c4F)CC3)C(=O)C1=O)c1cc(F)c(O)c(O)c1Cl)C2 (stereo partly drawn) [Example 478, (3R)-3-(2-(2-chloro-5-fluoro-3,4-dihydroxyphenyl)-2-(4-(1-((2-fluoro-3-hydroxyphenyl)carbamoyl)piperidin-4-yl)-2,3-dioxopiperazine-1-carboxamido)acetamido)-7-fluoro-2-hydroxy-3,4-dihydro-2H-benzo[e][1,2]oxaborinine-8-carboxylic acid]
IC50 [1]: < 10 µM | IC50 [2]: < 10 µM | EC50 (A. baumannii PBP2): 10 to 50 µM | MIC (A. baumannii ATCC 17978): < 1 µg/mL | MIC [3]: < 1 µg/mL | MIC (A. baumannii 1258916): < 1 µg/mL | MIC (A. baumannii CDC-0036): 2 to 4 µg/mL (≈ 2.44 to 4.88 µM) | MIC (P. aeruginosa CDC-0110): 2 to 4 µg/mL (≈ 2.44 to 4.88 µM)
